CNC(=O)c1ccc(Oc2ccc(NC(=O)Nc3ccc(Cl)c(C(F)(F)F)c3)cc2)cn1 [Entry 56, N-(4-chloro-3-(trifluoromethyl)phenyl)-N′-(4-(2-(N-methylcarbamoyl)-5-pyridyloxy)phenyl) urea]
melting point: 238 to 245 °C

CNC(=O)c1cc(Oc2ccc(NC(=O)Nc3ccc(Oc4ccnc(C(=O)NC)c4)cc3)cc2)ccn1 [Entry 103, bis(4-(2-(N-methylcarbamoyl)-4-pyridyloxy)phenyl) urea]
melting point: 125 to 130 °C
